# From paper PMC6337391 (Molecules, 2019)
# pIC50: −log10 of the molar value.
# What was measured:
# [1] = Reducing activity with the stable radical DPPH
# Experimental: The chalcones were studied for the antioxidant activity (reducing activity RA%) by the use of the stable free radical 2,2-diphenyl-1-picrylhydrazyl radical (DPPH) at concentrations 0.05 mM after 20 and 60 min (Table 2). In this procedure, the dominant chemical reaction involved is the reduction of the DPPH radical by single electron transfer from the antioxidant. […] For the sake of comparison, we measured the RA% values for the intermediate double ethers d which were included in the Table 2.
# To a solution of DPPH (final concentration 0.05 mM) in absolute ethanol an equal volume of the compounds solution in DMSO (stock solution 10 mM) dissolved in ethanol was added. Absolute ethanol was used as a control. The concentrations of the solutions of the compounds were 0.05 and 0.1 mM. The absorbance was recorded at 517 nm at room temperature after 20 and 60 min [29] (Table 2).
# [2] = ABTS•+ decolorization assay
# Experimental: The decolorization assay is used to evaluate the antioxidant activity. The ABTS^•+ cationic radical is derived from the direct oxidation of ABTS by potassium persulfate. No involvement of an intermediary radical is observed. The addition of electron-donating antioxidants reduce ABTS^•+.
# Stock solutions of the tested compounds in DMSO (10 mM) were diluted. […] aliquots of each sample were added into the ABTS·^+ solution and the absorbance was recorded at room temperature. Trolox was used as a standard.
# [3] = Inhibition of linoleic acid lipid peroxidation (AAPH)
# Source text: The water soluble 2,2′-azobis(2-amidinopropane) hydrochloride (AAPH) generates in vitro free radicals through spontaneous thermal decomposition. […] Overall, chalcones a, b, and c present anti-lipid peroxidation activity. […] The inhibiting activities for the rest b chalcones ranged from 15–44%. The intermediate ethers are moderate inhibitors. […] This might be correlated with the presence of the double C=C–COCH3 group. […] Both have a long ether chain in their structure.
# In an aqueous solution spectrophotometrically at 234 nm the production of conjugated diene hydro peroxide by oxidation of sodium linoleate was monitored and recorded according to our previous published experimental conditions, using 10 µL of the 16 mM sodium linoleate solution added to the UV cuvette containing 930 μL of 0.05 M phosphate buffer, pH 7.4 pre-thermostated at 37 °C, under air by the addition of 50 μL of 40 mM AAPH solution, which was used as a free radical initiator. Ten microliters (10 μL) of the appropriate solutions of the tested compounds were added in the mixture, whereas same level of DMSO was used as a blank for the measurement of lipid oxidation. The rate of oxidation at 37 °C was monitored by recording the increase in absorption at 234 nm caused by conjugated diene hydro peroxides.
# soybean lipoxygenase = biological target: T1, soybean lipoxygenase (Glycine max, UniProt P08170); assay: biochemical; assay type: biochemical; conditions: soybean LOX; for pIC50: read-out: LOX IC50
# T1 sequence (P08170 1-839): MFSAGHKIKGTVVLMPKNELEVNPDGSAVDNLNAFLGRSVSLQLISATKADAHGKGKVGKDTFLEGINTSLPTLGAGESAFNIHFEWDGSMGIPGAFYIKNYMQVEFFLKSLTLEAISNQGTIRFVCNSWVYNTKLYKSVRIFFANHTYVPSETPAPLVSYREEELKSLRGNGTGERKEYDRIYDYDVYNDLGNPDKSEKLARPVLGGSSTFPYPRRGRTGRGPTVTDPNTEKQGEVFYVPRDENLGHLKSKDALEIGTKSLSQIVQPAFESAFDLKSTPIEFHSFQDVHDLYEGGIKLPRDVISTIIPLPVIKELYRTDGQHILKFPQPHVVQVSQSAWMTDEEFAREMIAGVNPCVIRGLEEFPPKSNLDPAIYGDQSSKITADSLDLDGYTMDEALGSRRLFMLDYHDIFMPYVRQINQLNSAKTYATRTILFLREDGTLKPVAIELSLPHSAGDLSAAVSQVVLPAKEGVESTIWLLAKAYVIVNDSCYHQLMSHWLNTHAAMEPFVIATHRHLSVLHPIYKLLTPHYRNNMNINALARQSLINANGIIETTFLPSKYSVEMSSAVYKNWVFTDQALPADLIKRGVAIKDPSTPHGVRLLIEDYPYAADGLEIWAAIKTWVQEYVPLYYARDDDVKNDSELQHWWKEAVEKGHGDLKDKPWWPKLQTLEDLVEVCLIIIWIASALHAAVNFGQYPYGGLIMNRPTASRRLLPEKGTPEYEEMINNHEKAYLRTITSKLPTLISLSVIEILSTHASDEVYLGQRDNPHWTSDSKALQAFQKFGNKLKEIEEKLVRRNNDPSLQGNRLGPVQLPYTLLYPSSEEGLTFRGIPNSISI
# Source text: In our experiments we used soybean lipoxygenase. Designing agents to modulate activities of the variety of so closely homologous enzymes, such as different LOXs, require an intimate knowledge of their 3D structures, as well as information about metabolism of the potential xenobiotics. […] Due to lack of sufficiently-purified human enzymes most of the research has been done on soybean LOX [52, 53]. Although this enzyme is not identical to the mammalian one, it seems that there is a sufficient qualitative correlation between values for enzyme inhibition with the two enzymes.
# In vitro study was evaluated as reported previously. The tested compounds as stock solutions were dissolved in DMSO. Ten microliters (10 μL) were incubated at room temperature with sodium linoleate ([…]) and 0.2 mL of enzyme solution (1/9 × 10^−4 w/v in saline) in buffer pH 9 (tris) at room temperature (final volume 1 mL). […] Several concentrations were used for the determination of IC50 values.
# [4] = Lipophilicity as RM values by RP-TLC; assay type: physicochemical; set-up: key: RM = log[(1/Rf) − 1]; conditions: methanol/water 70/30, SD < 10%
# Source text: It is well-documented and discussed in the literature that lipophilicity is a very significant physicochemical property which may critically affect distribution, bioavailability, metabolic activity and elimination, all the useful characteristics for the kinetics of biologically active compounds. Thus, we attempted to determine experimentally the lipophilicity of the synthesized compounds from the RPTLC method as RM values. The method is considered to be a reliable, fast and convenient method for expressing lipophilicity. Moreover, many calculated methods were used in order to predict the logP value.
# Reversed phase TLC (RP-TLC) was performed on silica gel plates impregnated with 5% (v/v) liquid paraffin in light petroleum ether. The mobile phase was a methanol/water mixture (70/30, v/v). The plates were developed in closed chromatography tanks saturated with the mobile phase at 24 °C. Spots were detected under UV light. Five individual measurements of Rf values were recorded and used for the determination of RM using the equation RM = log [(1/Rf) − 1]. (Table 3).
Compound,RA% 100 μM 20 min [1],RA% 100 μM 60 min [1],ABTS•+ Inhb. % @ 100 μM [2],AAPH% @ 100 μM (anti-lipid peroxidation) [3],% LOX Inhb. @ 100 μM (soybean lipoxygenase),RM [4],pIC50 (soybean lipoxygenase)
"CC(/C=C/C(=O)c1ccccc1O)=C\c1ccccc1 [b8, (2E,4E)-1-(2-hydroxyphenyl)-4-methyl-5-phenylpenta-2,4-dien-1-one]",17%,3%,12%,25%,25%,−0.79,–
"CN(C)c1ccc(/C=C/C=C/C(=O)c2ccccc2O)cc1 [b3, (2E,4E)-5-(4-(dimethylamino)phenyl)-1-(2-hydroxyphenyl)penta-2,4-dien-1-one]",72%,15%,96%,100%,100%,−0.66,4.24
"O=C(/C=C/C=C/c1ccccc1)c1ccccc1O [b7, (2E,4E)-1-(2-hydroxyphenyl)-5-phenylpenta-2,4-dien-1-one]",13%,0%,5%,29%,29%,−0.85,–
"O=C(/C=C/C=C/c1ccc([N+](=O)[O-])cc1)c1ccccc1O [b11, (2E,4E)-1-(2-hydroxyphenyl)-5-(4-nitrophenyl) penta-2,4-dien-1-one]",4%,2%,No,31%,31%,−0.91,–
"O=C(/C=C/c1ccccc1)c1ccc(OCCCOc2ccc(C(=O)/C=C/c3ccccc3)cc2)cc1 [c13, (2E,2′E)-1,1′-((propane-1,3-diylbis(oxy))bis(4,1-phenylene))bis(3-phenylprop-2-en-1-one)]",No,no,No,71%,76%,0.34,4.19
"O=C(/C=C/c1cccc(Oc2ccccc2)c1)c1ccccc1O [b2, (E)-1-(2-hydroxyphenyl)-3-(3-phenoxyphenyl) prop-2-en-1-one]",45%,15%,No,44%,44%,0.04,–
"O=C(/C=C/c1ccccc1)c1ccc(O)cc1 [a13, (E)-1-(4-hydroxyphenyl)-3-phenylprop-2-en-1-one]",7%,3%,No,38%,23%,−0.73,–
"O=C(/C=C/c1ccccc1)c1ccccc1O [b13, (E)-1-(2-hydroxyphenyl)-3-phenylprop-2-en-1-one]",10%,0%,No,15%,14%,0.43,–
"O=C(/C=C/C(Br)=C\c1ccccc1)c1ccccc1O [b9, (2E,4E)-4-bromo-1-(2-hydroxyphenyl)-5-phenylpenta-2,4-dien-1-one]",20%,8%,No,17%,16%,−0.37,–
"O=C(/C=C/c1ccc(OCc2ccc(Br)cc2)cc1)c1ccccc1O [b1, (E)-3-(4-((4-bromobenzyl)oxy)phenyl)-1-(2-hydroxyphenyl) prop-2-en-1-one]",46%,0%,40%,89%,89%,−0.91,4.25
